According to patent US10370378B2, “Treatment of sleep disorders” (Evotec International GmbH, priority 2007, dated 2019):
“Also recorded” adds a separate entry of the source. Marks after values point to notes of the source that are not given here.

What was measured:
α1β2γ2 GABAA receptors = target: T1, α1β2γ2 GABAA receptors (Rattus norvegicus, UniProt P18508+P62813); test: Stimulation of currents elicited by GABA (EC3-5), two-electrode voltage clamp, receptors expressed in Xenopus oocytes; type: cell-based
T1 construct: expressed in transfected cells; host or cells: Xenopus laevis oocytes, cRNA microinjection
T1 sequence (P62813 28-455): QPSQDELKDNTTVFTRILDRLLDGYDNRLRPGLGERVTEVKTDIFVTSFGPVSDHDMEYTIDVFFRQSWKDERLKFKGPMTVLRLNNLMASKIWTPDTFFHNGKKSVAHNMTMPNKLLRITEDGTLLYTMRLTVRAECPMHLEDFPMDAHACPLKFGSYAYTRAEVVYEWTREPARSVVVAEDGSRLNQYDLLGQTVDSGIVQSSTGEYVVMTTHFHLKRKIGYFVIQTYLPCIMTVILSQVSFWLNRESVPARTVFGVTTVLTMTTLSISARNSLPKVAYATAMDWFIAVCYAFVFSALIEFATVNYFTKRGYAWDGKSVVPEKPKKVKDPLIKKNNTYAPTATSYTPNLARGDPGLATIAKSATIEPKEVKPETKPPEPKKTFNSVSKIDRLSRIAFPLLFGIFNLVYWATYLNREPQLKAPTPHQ
T1 sequence (P63138 25-474 partner limits assumed): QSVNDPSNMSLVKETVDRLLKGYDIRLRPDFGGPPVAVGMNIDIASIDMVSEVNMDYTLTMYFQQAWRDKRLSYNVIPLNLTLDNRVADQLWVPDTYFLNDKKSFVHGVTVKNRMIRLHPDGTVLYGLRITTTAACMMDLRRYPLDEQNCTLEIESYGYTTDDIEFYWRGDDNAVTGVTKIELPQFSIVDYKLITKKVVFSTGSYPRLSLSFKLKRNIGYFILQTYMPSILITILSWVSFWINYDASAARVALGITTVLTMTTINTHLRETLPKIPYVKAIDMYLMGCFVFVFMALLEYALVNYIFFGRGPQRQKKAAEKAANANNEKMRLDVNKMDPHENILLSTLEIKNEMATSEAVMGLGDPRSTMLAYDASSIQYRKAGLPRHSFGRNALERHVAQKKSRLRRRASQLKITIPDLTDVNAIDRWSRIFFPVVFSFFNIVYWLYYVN
T1 sequence (P18508 39-466): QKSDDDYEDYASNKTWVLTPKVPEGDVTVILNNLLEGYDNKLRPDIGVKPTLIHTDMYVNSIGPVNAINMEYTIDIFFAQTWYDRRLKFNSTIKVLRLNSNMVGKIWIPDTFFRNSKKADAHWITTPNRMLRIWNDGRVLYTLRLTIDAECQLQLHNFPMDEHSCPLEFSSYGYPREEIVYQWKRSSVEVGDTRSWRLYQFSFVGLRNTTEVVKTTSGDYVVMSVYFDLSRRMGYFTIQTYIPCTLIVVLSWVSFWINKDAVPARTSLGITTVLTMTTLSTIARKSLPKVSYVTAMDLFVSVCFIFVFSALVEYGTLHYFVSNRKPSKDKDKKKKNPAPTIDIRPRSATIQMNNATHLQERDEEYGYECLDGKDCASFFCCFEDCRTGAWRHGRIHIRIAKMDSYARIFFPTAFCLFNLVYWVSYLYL
From the text: 7-Chloro-3-(5-dimethylaminomethyl-[1,2,4]oxadiazol-3-yl)-5-methyl-4,5-dihydro-imidazol[1,5,-a][1,4]benzodiazepine-6-one was used to test the effects of the compound of formula (II): […]
Similar procedures were chosen as for the investigation of other GABAA receptor subunit specific substances (e.g., Baur et al., 2005; Mol. Pharmacol. 68, 787-792).
Lobes of the ovary containing the follicles were obtained by surgical procedures from female Xenopus laevis. Follicles were singled out using a platinum loop. Fifty nL of cRNA solution at a ratio of αx:β2:γ2 of 1:1:5 (3.3-10 nM αx (x=1, 2, 3, 5); 3.3-10 nM β2; 16.7-50 nM γ2) (Boileau et al., 2002; Neuropharmacology 43, 695-700) were microinjected into Xenopus follicles. Several hours after microinjection the follicles were freed of follicular layers and adhering connective tissue by a collagenase/hypertonic shock procedure (Sigel, 1987; J. Physiol. (Land) 386, 73-90). Oocytes were kept at constant 18° C. until measurement (1-4 days) in a modified Barth solution (88 mM NaCl, 1 mM KCl, 2.4 mM NaHCO3, 10 mM Hepes-NaOH (pH 7.5), 0.82 mM MgSO4×7H2O, 0.34 mM Ca(NO3)2×4H2O, 0.41 mM CaCl2×2H2O, 100 U Penicillin/mL, 100 μg Streptomycin/mL, sterile filtered).
Currents were measured using a home-built amplifier in combination with a xy-recorder or were digitized using a MacLab/200 (AD Instruments) and stored on a computer. Xenopus oocytes were voltage clamped using the two-electrode voltage clamp technique (electrode resistance about 0.8 MΩ) at −80 mV. The medium contained 90 mM NaCl, 1 mM KCl, 1 mM MgCl2, 1 mM CaCl2, 10 mM Na-Hepes (pH 7.4) and 0.5% DMSO.
GABA was applied for 20-50 seconds without or in combination with other drugs and a washout period of 4 minutes was allowed to ensure full recovery from desensitization, which was experimentally determined. The perfusion solution (6 mL/min) was applied through a glass capillary with an inner diameter of 1.35 mm, the mouth of which was placed about 0.4 mm from the surface of the oocyte. The rate of solution change under our conditions has been estimated 70% within less than 0.5 s (Sigel et al., 1990; Neuron 5, 703-711). The entire perfusion system and the assay chamber were cleaned between drug applications by washing with DMSO.
Data is given as mean±SD, except in the figures where data is shown for clarity as mean±SEM. Current stimulation was calculated as follows: stimulation (%)=((I(GABA+modulator)−I(GABA))/I(GABA))×100%, where I is the current amplitude. Where indicated, the stimulation was standardized to the stimulation by 1 μM diazepam (100%). To obtain FIGS. 1-4, values for current stimulation obtained at a given concentration of modulator at a given subunit combination were averaged. The data points were fitted with the equation stimulation=efficacy/(1+(potency/concentration of modulator)). The values given in the Tables (Summary) are obtained by fitting individual curves and subsequently averaging efficacy and potency. […]
GABA was then applied in combination with various concentrations of the compound of formula (II) between 0.3 nM and 3,000 nM to produce a cumulative concentration response curve. […] In each batch of oocytes the stimulation by 1 μM diazepam was determined in five oocytes, extent of stimulation averaged and defined as 100%. Where indicated, stimulation by the compound of formula (II) in each batch of oocytes was expressed as a percentage of this value in the corresponding batch. […]

[1] = Example 2: single and repeat dose pharmacokinetic, safety and pharmacodynamic study; type: in vivo, human; settings: healthy volunteers, oral
Experimental: A single and repeat dose pharmacokinetic safety and pharmacodynamic study of the effects of the compound of formula (II) was conducted using healthy volunteers. The compound of formula (II) in free base form was administered orally in 1 mg, 1.5 mg, 2 mg and 2.5 mg doses via a hard gelatine capsule containing the compound in powder form.

[2] = Pharmacokinetic profile in non-elderly adults and the elderly (FIG. 16); type: in vivo, human; settings: free base
From the text: FIG. 16 is a chart showing an exemplary pharmacokinetic (PK) profile of the compound of formula (II) (free base) in both the non-elderly adults and the elderly. Mean dose adjusted plasma concentrations of the compound of formula (II) (free base) in non-elderly (open circle) and elderly males (open square) and M1 (active metabolite of the compound of formula (II) (free base)) in non-elderly adults (filled circle) and the elderly (filled square).
As a result, the inventors determined that the same or similar doses of the compound of formula (II), which are effective for non-elderly adults (18-64 years of age), could be effective for the elderly.

[3] = system: healthy volunteers subjected to road traffic noise; test: Example 1: placebo controlled cross-over study, road noise model; type: in vivo, human
Experimental: A placebo controlled, randomized, double-blind, cross-over study of the effects of the compound of formula (II) was conducted using a road noise model using 12 healthy volunteers. Specifically, the volunteers were subjected to road traffic noise to imitate the effects of insomnia, and the medication was orally administered 5 minutes before the 11 pm bed time in 1.0 mg, 1.5 mg, 2 mg and 2.5 mg doses in the form of a hard gelatine capsule containing the powdered compound of formula (II) in free base form. Measurements were then taken at 8, 10 and 12 hours after dosing.

[4] = 1.5, 2.0 & 2.5 mg oral, objective
[5] = all 4 doses (1.0, 1.5, 2, 2.5 mg)
[6] = all 4 doses, objective residual effects

## CN(C)Cc1nc(-c2ncn3c2CN(C)C(=O)c2c(Cl)cccc2-3)no1 [compound of formula (II), 7-chloro-3-(5-dimethylaminomethyl-[1,2,4]oxadiazol-3-yl)-5-methyl-4,5-dihydro-imidazo[1,5-a][1,4]benzodiazepine-6-one]
α1β2γ2 GABAA receptors; GABAA receptor benzodiazepine site
  Intrinsic activity / type of allosteric modulation: partial agonist; also recorded: partial positive allosteric modulator
α1β2γ2 GABAA receptors; concentrations <100 nM
  Receptor subtype preference in comparison to α5β2γ2, α3β2γ2 and α2β2γ2: preference for α1β2γ2 GABAA receptors
[1]
  effect of food on the extent of absorption: little or no effect
  pharmacokinetic profile on day 14 after repeat dosing compared to day 1: no significant differences
[2]
  pharmacokinetic (PK) profile in non-elderly versus elderly: similar
[3]; 2.5 mg
  Subjective assessment (LARS): Coordination: No impairment
  Subjective assessment (LARS): Mood: No impairment
  Subjective assessment (LARS): Sedation: No impairment
[3]; [4]
  WASO, 2nd half (hrs 5-8): Significantly reduced
  WASO, full night (hrs 0-8): Significantly reduced
[3]; 2.0 & 2.5 mg oral, objective
  Sleep Efficiency Index: Significantly improved
  TST: Significantly improved
[3]; 8 to 12 hours after dose, data corrected for multiple comparisons
  Performance on any of the cognitive or psychomotor tests: no impairment
[3]; all 4 doses
  Choice Reaction Time - Motor Component: No effect (all 4 doses)
  Critical Flicker Fusion Test: No effect (all 4 doses)
  Word Recall - delayed (WRd): No effect (all 4 doses)
[3]; [5]
  SWS (% and duration): Significantly increased
  Stage IV Sleep (% and duration): Significantly increased
[3]; all 4 doses, model considered nondiscriminant for sleep onset
  Leeds Sleep Evaluation Questionnaire: Getting to sleep: (No effect to all 4 doses)*
[3]; [6]
  Rapid Visual Information Processing: No effect (all 4 doses)
  Sustained Attention to Response (SART): No effect (all 4 doses)
[3]; all 4 doses, subjective
  Leeds Sleep Evaluation Questionnaire: Early morning behaviour (clumsiness & tiredness): No effect (all 4 doses)
  Leeds Sleep Evaluation Questionnaire: Ease of awakening: No effect (all 4 doses)
[3]; at 8 or 12 h, all 4 doses
  Sternberg Memory Task (STM): No effect at 8 or 12 h (all 4
[3]; at 10 or 12 h, all 4 doses
  Continuous Tracking Task - reaction time: No effect at 10 or 12 h (all
[3]; at 8 h, all 4 doses
  Continuous Tracking Task - deviation: No effect at 8 h (all 4
